Source: US7445939B2, “Stable liquid membranes for liquid phase microextraction” (Varian, Inc., priority 2004, dated 2008)

How the values were obtained:
[1] = Extraction ability and storage stability of supported liquid membranes on hollow fibers (in words); type: physicochemical; details: polypropylene fibers, after 30 days of storage at room temperature
Method: The liquid membrane was formed by dipping the hollow fiber into the organic solvent for 5 to 30 sec to allow the solvent to penetrate into the pores of the fiber. Then acceptor solution was introduced into the lumen of the fiber using a syringe. The acceptor solution was 10 mM HCl, having a pH of 2. Extraction ability was tested by immersing the hollow fibers with their supported liquid membranes into a sample vial containing 4 mL of a solution containing 5 basic drugs, at a pH of 12, with stirring, and allowing the analytes to equilibrate across the liquid membranes to the acceptor solution within (25 μl 10 mM HCl). After allowing the sample analytes sufficient time to reach equilibration with the acceptor solution, about 15 to 60 minutes, the acceptor solution was withdrawn from the hollow fibers, and the concentration of analytes was determined using capillary electrophoresis.
Experiments were performed using polypropylene and polysulfone hollow fibers, testing the effectiveness and stability of liquid membranes comprising fatty oils in the extraction of analytes from samples after storage of the fibers for 30 days prior to use. Supported liquid membranes were established on the hollow fibers using the procedures described in Example 1 above, but substituting the following oils for the organic solvents tested in Example 1: tributyrin, soya oil, or olive oil. […]

[2] = Weights of fibers with liquid membranes as a function of time and storing condition; type: physicochemical
[3] = supported liquid membranes of WO 02/088672; cited from earlier work

CCCC(=O)OCC(COC(=O)CCC)OC(=O)CCC [tributyrin]
Extraction performance [1]: extracted analytes

CCCCCCCCCCCCCC(=O)OC(C)=O [MA, myristoyl acetate]
Weight (mg) of fibers ([2]; MA table, closed container, Day 0): 38.76 mg | Weight (mg) of fibers ([2]; MA table, closed container, Day 4): 38.72 mg | Weight (mg) of fibers ([2]; MA table, open to the air, Day 0): 41.36 mg | Weight (mg) of fibers ([2]; MA table, open to the air, Day 4): 40.90 mg

CCCCCCCCCCCCOC(C)=O [DDA, dodecyl acetate]
Weight (mg) of fibers ([2]; DDA table, closed container, Day 0): 42.40 mg | Weight (mg) of fibers ([2]; DDA table, closed container, Day 3): 42.14 mg | Weight (mg) of fibers ([2]; DDA table, closed container, Day 10): 42.12 mg | Weight (mg) of fibers ([2]; DDA table, open to the air, Day 0): 45.94 mg | Weight (mg) of fibers ([2]; DDA table, open to the air, Day 2): 43.92 mg | Weight (mg) of fibers ([2]; DDA table, open to the air, Day 5): 41.70 mg

CCCCCCCCOc1ccccc1[N+](=O)[O-] [NPOE, nitropheyloctyl ether]
Membrane lifetime [3]: 10 to 20 days
